Test results reported in article PMC11303640, “ALK5/VEGFR2 dual inhibitor TU2218 alone or in combination with immune checkpoint inhibitors enhances immune-mediated antitumor effects” (Cancer Immunology, Immunotherapy : CII, 2024).

Target: T1, VEGFR2 (Homo sapiens, UniProt P35968)
T1 construct: gene KDR
Test: kinase enzyme assay (Reaction Biology), 10-point dose response, […] ATP
Assay type: biochemical

T1 sequence (P35968 20-1356): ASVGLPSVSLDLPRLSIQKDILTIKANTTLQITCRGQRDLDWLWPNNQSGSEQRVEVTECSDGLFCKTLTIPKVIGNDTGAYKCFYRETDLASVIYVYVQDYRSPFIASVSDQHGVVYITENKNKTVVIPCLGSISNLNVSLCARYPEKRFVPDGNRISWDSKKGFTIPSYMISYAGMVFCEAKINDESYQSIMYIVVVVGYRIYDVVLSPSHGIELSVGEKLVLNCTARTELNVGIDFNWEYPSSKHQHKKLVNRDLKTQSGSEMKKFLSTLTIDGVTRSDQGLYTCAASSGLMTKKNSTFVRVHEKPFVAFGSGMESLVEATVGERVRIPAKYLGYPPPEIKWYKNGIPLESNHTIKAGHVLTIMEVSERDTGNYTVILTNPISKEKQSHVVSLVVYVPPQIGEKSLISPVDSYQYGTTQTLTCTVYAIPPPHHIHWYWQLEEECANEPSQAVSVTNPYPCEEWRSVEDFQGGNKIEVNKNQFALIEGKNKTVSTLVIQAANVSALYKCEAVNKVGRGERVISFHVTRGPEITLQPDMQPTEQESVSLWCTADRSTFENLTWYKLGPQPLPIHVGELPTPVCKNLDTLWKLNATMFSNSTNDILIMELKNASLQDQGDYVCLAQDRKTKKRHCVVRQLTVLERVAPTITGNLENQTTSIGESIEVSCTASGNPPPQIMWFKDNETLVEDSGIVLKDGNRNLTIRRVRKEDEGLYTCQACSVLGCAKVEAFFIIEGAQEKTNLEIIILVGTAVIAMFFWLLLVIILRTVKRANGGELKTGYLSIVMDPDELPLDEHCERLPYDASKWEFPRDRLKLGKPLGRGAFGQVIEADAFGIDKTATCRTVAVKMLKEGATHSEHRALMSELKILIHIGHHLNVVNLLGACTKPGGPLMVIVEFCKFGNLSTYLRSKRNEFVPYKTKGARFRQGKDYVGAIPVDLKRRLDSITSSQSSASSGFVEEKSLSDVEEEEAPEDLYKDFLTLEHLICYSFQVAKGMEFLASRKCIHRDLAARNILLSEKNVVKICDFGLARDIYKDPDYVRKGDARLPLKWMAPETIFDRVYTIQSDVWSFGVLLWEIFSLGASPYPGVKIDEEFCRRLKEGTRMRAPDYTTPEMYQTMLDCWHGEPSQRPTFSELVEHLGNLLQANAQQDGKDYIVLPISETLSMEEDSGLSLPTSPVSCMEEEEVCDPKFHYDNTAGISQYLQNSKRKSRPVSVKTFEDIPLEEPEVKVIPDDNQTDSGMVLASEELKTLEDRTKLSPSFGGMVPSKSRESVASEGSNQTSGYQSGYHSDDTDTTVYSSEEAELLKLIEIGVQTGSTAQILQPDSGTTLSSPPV

Cc1cccc(-c2nc3n(c2-c2ccc4ncnn4c2)CCN3)n1 [TU2218]
IC50: 4.9 nM
